Measured values as given in US20120202754A1 (priority 2009, published 2012).

Target: BoNT A light chain (BoNT A Lc) (Clostridium botulinum, UniProt P0DPI0)
Assay type: biochemical

Sequence of BoNT A light chain (BoNT A Lc) (P0DPI0 2-448 limits assumed): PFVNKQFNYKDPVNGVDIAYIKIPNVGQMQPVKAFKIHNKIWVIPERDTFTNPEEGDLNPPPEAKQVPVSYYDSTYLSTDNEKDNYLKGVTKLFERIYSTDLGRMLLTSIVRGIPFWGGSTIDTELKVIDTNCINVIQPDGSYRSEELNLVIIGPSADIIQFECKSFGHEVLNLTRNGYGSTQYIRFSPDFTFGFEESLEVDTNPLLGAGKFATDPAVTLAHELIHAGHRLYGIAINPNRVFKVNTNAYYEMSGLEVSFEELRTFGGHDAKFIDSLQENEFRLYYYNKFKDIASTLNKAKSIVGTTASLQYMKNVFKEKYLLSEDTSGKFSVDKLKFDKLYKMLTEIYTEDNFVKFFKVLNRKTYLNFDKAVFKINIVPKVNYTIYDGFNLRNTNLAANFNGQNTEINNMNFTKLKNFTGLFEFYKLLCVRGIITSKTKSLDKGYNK

Substance	effect of substitution or truncation on hydrolysis rate (in words)
S N K V R I D Q A N Q R A T K M L [Peptide P3]	further enhanced the rate
N R V R I D A A N Q R A T R M [Peptide P5]	enhanced cleavage velocity
V R I D A A N Q R A T R M [Peptide P7]	decreased the hydrolysis rate significantly
S N R V R I D Q A N Q R A T R M L [Peptide P4]	had no effect
